Experimental data reported in US8309718B2, “4-pyrazolyl-N-arylpyrimidin-2-amines and 4-pyrazolyl-N-heteroarylpyrimidin-2-amines as janus kinase inhibitors” (Incyte Corporation, priority 2007, dated 2012).
pIC50: −log10 of the molar value.

Molecular target: T1, human JAK2 (Homo sapiens, UniProt O60674)
T1 construct: JAK2 (a.a. 828-1132); His tag (N); made in house; host or cells: insect cells (baculovirus)
Assay: In vitro JAK kinase assay (HTRF, phosphorylation of biotinylated peptide)
Type: biochemical
Conditions: catalytic domain a.a. 828-1132, 30 μM ATP, 500 nM peptide, room temperature 1 hr; read-out: JAK-2 IC50
Experimental: Compounds herein were tested for inhibitory activity of JAK targets according to the following in vitro assay described in Park et al, Analytical Biochemistry 1999, 269, 94-104. The catalytic domains of human JAK1 (a.a. 837-1142), JAK2 (a.a. 828-1132) and JAK3 (a.a. 781-1124) with an N-terminal His tag were expressed using baculovirus in insect cells and purified. The catalytic activity of JAK1, JAK2 or JAK3 was assayed by measuring the phosphorylation of a biotinylated peptide. The phosphorylated peptide was detected by homogenous time resolved fluorescence (HTRF). IC50s of compounds were measured for each kinase in the reactions that contain the enzyme, ATP and 500 nM peptide in 50 mM Tris (pH 7.8) buffer with 100 mM NaCl, 5 mM DTT, and 0.1 mg/mL (0.01%) BSA. The ATP concentration in the reactions was 90 μM for JAK1, 30 μM for Jak2 and 3 μM for JAK3. Reactions were carried out at room temperature for 1 hr and then stopped with 20 μL 45 mM EDTA, 300 nM SA-APC, 6 nM Eu-Py20 in assay buffer (Perkin Elmer, Boston, Mass.). Binding to the Europium labeled antibody took place for 40 minutes and HTRF signal was measured on a Fusion plate reader (Perkin Elmer, Boston, Mass.). Certain of the above compounds were tested according to this assay.

T1 sequence (O60674 828-1132): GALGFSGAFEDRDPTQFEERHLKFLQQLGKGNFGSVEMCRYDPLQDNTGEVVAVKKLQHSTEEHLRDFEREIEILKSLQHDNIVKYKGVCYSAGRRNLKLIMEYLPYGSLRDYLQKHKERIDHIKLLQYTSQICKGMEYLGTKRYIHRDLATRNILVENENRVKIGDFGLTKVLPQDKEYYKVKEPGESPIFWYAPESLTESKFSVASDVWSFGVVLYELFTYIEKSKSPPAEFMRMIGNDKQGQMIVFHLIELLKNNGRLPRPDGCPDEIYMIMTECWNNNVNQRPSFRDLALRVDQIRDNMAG

pIC50	Compound
> 7.00	N#CCC(C1CCN(c2ncc(F)cn2)CC1)n1cc(-c2ccnc(Nc3ccc(N4CCOCC4)cc3)n2)cn1 (racemic) [Example 23, 3-(1-(5-fluoropyrimidin-2-yl)piperidin-4-yl)-3-(4-(2-(4-morpholinophenylamino)pyrimidin-4-yl)-1H-pyrazol-1-yl)propanenitrile]
> 7.00	CS(=O)(=O)N1CCC(C(CC#N)n2cc(-c3ccnc(Nc4ccc(N5CCOCC5)cc4)n3)cn2)CC1 (racemic) [Example 24, 3-(1-(methylsulfonyl)piperidin-4-yl)-3-(4-(2-(4-morpholinophenylamino)pyrimidin-4-yl)-1H-pyrazol-1-yl)propanenitrile]
> 7.00	N#CCC(C1CCN(S(=O)(=O)c2ccccc2)CC1)n1cc(-c2ccnc(Nc3ccc(N4CCOCC4)cc3)n2)cn1 (racemic) [Example 25, 3-(4-(2-(4-morpholinophenylamino)pyrimidin-4-yl)-1H-pyrazol-1-yl)-3-(1-(phenylsulfonyl)piperidin-4-yl)propanenitrile]
> 7.00	CC(=O)N1CCC(C(CC#N)n2cc(-c3ccnc(Nc4ccc(N5CCOCC5)cc4)n3)cn2)CC1 (racemic) [Example 26, 3-(1-acetylpiperidin-4-yl)-3-(4-(2-(4-morpholinophenylamino)pyrimidin-4-yl)-1H-pyrazol-1-yl)propanenitrile]
> 7.00	N#CCC(C1CCN(C(=O)c2ccccc2)CC1)n1cc(-c2ccnc(Nc3ccc(N4CCOCC4)cc3)n2)cn1 (racemic) [Example 27, 3-(1-benzoylpiperidin-4-yl)-3-(4-(2-(4-morpholinophenylamino)pyrimidin-4-yl)-1H-pyrazol-1-yl)propanenitrile]
> 7.00	N#CCC(C1CCCC1)n1cc(-c2ccnc(Nc3ccc(C(N)=O)cc3)n2)cn1 (racemic) [Example 33, 4-(4-(1-(2-cyano-1-cyclopentylethyl)-1H-pyrazol-4-yl)pyrimidin-2-ylamino)benzamide]
> 7.00	N#CCC(C1CCCC1)n1cc(-c2ccnc(Nc3ccc(-n4cccn4)cc3)n2)cn1 (racemic) [Example 34, 3-(4-(2-(4-(1H-pyrazol-1-yl)phenylamino)pyrimidin-4-yl)-1H-pyrazol-1-yl)-3-cyclopentylpropanenitrile]
> 7.00	N#CCC(C1CCCC1)n1cc(-c2ccnc(Nc3ccc(N4CCOCC4)cc3)n2)cn1 (racemic) [Example 35, 3-cyclopentyl-3-(4-(2-(4-morpholinophenylamino)pyrimidin-4-yl)-1H-pyrazol-1-yl)propanenitrile]
> 7.00	N#CCC(C1CCCC1)n1cc(-c2ccnc(Nc3ccccc3)n2)cn1 (racemic) [Example 36, 3-cyclopentyl-3-(4-(2-(phenylamino)pyrimidin-4-yl)-1H-pyrazol-1-yl)propanenitrile]
> 7.00	N#CCC(C1CCCC1)n1cc(-c2ccnc(Nc3cccc(-c4cnco4)c3)n2)cn1 (racemic) [Example 37, 3-cyclopentyl-3-(4-(2-(3-(oxazol-5-yl)phenylamino)pyrimidin-4-yl)-1H-pyrazol-1-yl)propanenitrile]
> 7.00	COc1ccc(Nc2nccc(-c3cnn(C(CC#N)C4CCCC4)c3)n2)cc1 (racemic) [Example 38, 3-cyclopentyl-3-(4-(2-(4-methoxyphenylamino)pyrimidin-4-yl)-1H-pyrazol-1-yl)propanenitrile]
> 7.00	CC(=O)Nc1ccc(Nc2nccc(-c3cnn(C(CC#N)C4CCCC4)c3)n2)cc1 (racemic) [Example 39, N-(4-(4-(1-(2-cyano-1-cyclopentylethyl)-1H-pyrazol-4-yl)pyrimidin-2-ylamino)phenyl)acetamide]
> 7.00	CN(C)C(=O)c1ccc(Nc2nccc(-c3cnn(C(CC#N)C4CCCC4)c3)n2)cc1 (racemic) [Example 40, 4-(4-(1-(2-cyano-1-cyclopentylethyl)-1H-pyrazol-4-yl)pyrimidin-2-ylamino)-N,N-dimethylbenzamide]
